Experiment [1] addresses SHP-2 enzyme (Met1-Leu525) (Homo sapiens (Human), UniProt Q06124). Briefly: SHP2 inhibition enzymatic assay. In kind it is biochemical. The note with it: 0.5 nM SHP-2 activated by 500 nM IRS1 peptide, 75 μM DiFMUP substrate; read-out: SHP2wt-IC50. An outline of the steps: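 Compounds were preincubated 30 min with 0.5 nM SHP-2 (Met1-Leu525) plus 500 nM IRS1 activating peptide (pH 7.2 HEPES, 5 mM DTT), then 75 μM DiFMUP substrate reacted 30 min at room temperature. After bpV quench, DiFMUP fluorescence gave % inhibition; four-parameter logistic fit yielded IC50.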

Experiment [2] concerns ERK phosphorylation in KYSE-520 cells. Briefly: Phospho-ERK cellular assay. It is filed as cell-based. The note with it: Homo sapiens, KYSE-520, 2 h, KYSE-520 cells, 2 h at 37° C., phospho-ERK1/2 (Thr202/Tyr204) TR-FRET; read-out: PERK IC50. The essentials: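 TR-FRET read-out of ERK1/2 Thr202/Tyr204 phosphorylation was taken after overnight antibody incubation at room temperature. Before that, KYSE-520 cells were treated 2 h at 37 °C with compound dilutions and lysed 30 min. Percent inhibition relative to vehicle and cell-free wells was fitted four-parametrically to give IC50.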
A general note: In TR-FRET formats the signal depends on donor and acceptor labels being close together.

For orientation: IC50 means the midpoint of a concentration-inhibition curve.

SHP-2 enzyme (Met1-Leu525), sequence (Q06124 1-525): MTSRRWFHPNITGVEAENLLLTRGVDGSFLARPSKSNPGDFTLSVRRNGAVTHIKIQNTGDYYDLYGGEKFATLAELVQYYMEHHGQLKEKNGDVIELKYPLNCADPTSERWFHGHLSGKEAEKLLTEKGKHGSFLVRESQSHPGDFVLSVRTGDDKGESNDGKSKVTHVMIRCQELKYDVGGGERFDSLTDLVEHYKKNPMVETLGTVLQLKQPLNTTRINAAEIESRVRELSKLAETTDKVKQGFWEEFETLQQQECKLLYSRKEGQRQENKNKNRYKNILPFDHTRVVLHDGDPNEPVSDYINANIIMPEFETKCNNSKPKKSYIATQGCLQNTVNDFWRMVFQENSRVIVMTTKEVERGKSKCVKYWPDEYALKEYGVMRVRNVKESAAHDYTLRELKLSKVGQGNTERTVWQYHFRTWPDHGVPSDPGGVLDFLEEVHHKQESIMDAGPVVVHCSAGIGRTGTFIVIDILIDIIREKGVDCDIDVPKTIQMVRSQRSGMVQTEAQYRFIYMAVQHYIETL

As for `NC[C@]1(c2ccccc2F)[C@@H]2CCN(c3cnc4c(-c5ccc(F)c6ncccc56)c[nH]c4n3)C[C@@H]21` [Example 507, ((1S,6R,7R)-7-(2-fluorophenyl)-3-(7-(8-fluoroquinolin-5-yl)-5H-pyrrolo[2,3-b]pyrazin-3-yl)-3-azabicyclo[4.1.0]heptan-7-yl)methanamine], the results for the IC50 in experiment [1] and in experiment [2] were under 500 nM and under 1000 nM, respectively.

On to `NC[C@]1(c2ccccc2F)[C@@H]2CCN(c3cnc4c(-c5ccc6c(c5Cl)CC(=O)N6)n[nH]c4n3)C[C@@H]21` [Example 216, 5-(6-((1S,6R,7R)-7-(aminomethyl)-7-(2-fluorophenyl)-3-azabicyclo[4.1.0]heptan-3-yl)-1H-pyrazolo[3,4-b]pyrazin-3-yl)-4-chloroindolin-2-one], for which the IC50 was under 500 nM in experiment [1] and under 1000 nM in experiment [2].

Consider `NC[C@]1(c2ccccc2)[C@@H]2CN(c3cnc4c(-c5ccc6nccnc6c5Cl)n[nH]c4n3)C[C@@H]21` [Example 456, ((1R,5S,6s)-3-(3-(5-chloroquinoxalin-6-yl)-1H-pyrazolo[3,4-b]pyrazin-6-yl)-6-phenyl-3-azabicyclo[3.1.0]hexan-6-yl)methanamine], for which the IC50 in experiment [1] is under 500 nM; in experiment [2], under 1000 nM.

As to `NC[C@]1(c2ccccc2F)[C@@H]2CCN(c3cnc4c(-c5cc(Cl)c(C(N)=O)cc5F)n[nH]c4n3)C[C@@H]21` [Example 253, 4-(6-((1S,6R,7R)-7-(aminomethyl)-7-(2-fluorophenyl)-3-azabicyclo[4.1.0]heptan-3-yl)-1H-pyrazolo[3,4-b]pyrazin-3-yl)-2-chloro-5-fluorobenzamide], the IC50 was under 500 nM in experiment [1] and under 1000 nM in experiment [2].

As for `NC[C@]1(c2ccccc2F)[C@@H]2CCN(c3cnc4c(-c5ccc(C6CC6)c6ncccc56)n[nH]c4n3)C[C@@H]21` [Example 139, ((1S,6R,7R)-3-(3-(8-cyclopropylquinolin-5-yl)-1H-pyrazolo[3,4-b]pyrazin-6-yl)-7-(2-fluorophenyl)-3-azabicyclo[4.1.0]heptan-7-yl)methanamine], the IC50 is under 500 nM in experiment [1] and under 1000 nM in experiment [2].

On to `NC[C@]1(c2ccccc2F)[C@@H]2CCN(c3cnc4c(-c5ccc6nccc(=O)n6c5)n[nH]c4n3)C[C@@H]21` [Example 260, 7-(6-((1S,6R,7R)-7-(aminomethyl)-7-(2-fluorophenyl)-3-azabicyclo[4.1.0]heptan-3-yl)-1H-pyrazolo[3,4-b]pyrazin-3-yl)-4H-pyrido[1,2-a]pyrimidin-4-one], for which the half-inhibitory concentration (IC50) in experiment [1] was under 500 nM; in experiment [2] it was over 5000 nM.

Consider `NC[C@]1(c2ccccc2F)[C@@H]2CCN(c3cnc4c(-c5cc6cc[nH]c(=O)c6cc5Cl)n[nH]c4n3)C[C@@H]21` [Example 370, 6-(6-((1S,6R,7R)-7-(aminomethyl)-7-(2-fluorophenyl)-3-azabicyclo[4.1.0]heptan-3-yl)-1H-pyrazolo[3,4-b]pyrazin-3-yl)-7-chloroisoquinolin-1(2H)-one], for which the half-inhibitory concentration (IC50) in experiment [1] was under 500 nM; in experiment [2], under 1000 nM.

For `Cn1cc2c(Cl)c(Sc3ccc4nc(N5CC[C@@H]6[C@H](C5)[C@@]6(CN)c5ccccc5F)cnc4n3)ccc2n1` [Example 400, ((1S,6R,7R)-3-(6-((4-chloro-2-methyl-2H-indazol-5-yl)thio)pyrido[2,3-b]pyrazin-2-yl)-7-(2-fluorophenyl)-3-azabicyclo[4.1.0]heptan-7-yl)methanamine], the half-inhibitory concentration (IC50) is under 500 nM in experiment [1] and under 1000 nM in experiment [2].

Take `Cc1cc([C@@]2(CN)[C@@H]3CCN(c4cnc5c(-c6ccnc7ncccc67)n[nH]c5n4)C[C@@H]32)no1` [Example 38, ((1S,6R,7S)-3-(3-(1,8-naphthyridin-4-yl)-1H-pyrazolo[3,4-b]pyrazin-6-yl)-7-(5-methylisoxazol-3-yl)-3-azabicyclo[4.1.0]heptan-7-yl)methanamine]: the IC50 was under 500 nM in experiment [1] and under 1000 nM in experiment [2].

On to `Cc1csc([C@@]2(CN)[C@@H]3CN(c4cnc(Sc5ccn6cc(C(=O)N(C)C)nc6c5Cl)cn4)C[C@@H]32)n1` [Example 447, 7-((5-((1R,5S,6r)-6-(aminomethyl)-6-(4-methylthiazol-2-yl)-3-azabicyclo[3.1.0]hexan-3-yl)pyrazin-2-yl)thio)-8-chloro-N,N-dimethylimidazo[1,2-a]pyridine-2-carboxamide], for which the IC50 was under 500 nM in experiment [1] and under 1000 nM in experiment [2].

Turning to `NC[C@]1(c2cccc(F)c2F)[C@@H]2CCN(c3cnc4c(-c5ccc(C(=O)O)c6ncccc56)n[nH]c4n3)C[C@@H]21` [Example 266, 5-(6-((1S,6R,7R)-7-(aminomethyl)-7-(2,3-difluorophenyl)-3-azabicyclo[4.1.0]heptan-3-yl)-1H-pyrazolo[3,4-b]pyrazin-3-yl)quinoline-8-carboxylic acid], the IC50 in experiment [1] is under 500 nM; in experiment [2] it was under 1000 nM.

As to `Cc1csc(C2(CN)C3CCN(c4cnc5c(-c6cccc(Cl)c6)n[nH]c5n4)CC32)n1` (centres unmarked) [Example 85, (3-(3-(3-chlorophenyl)-1H-pyrazolo[3,4-b]pyrazin-6-yl)-7-(4-methylthiazol-2-yl)-3-azabicyclo[4.1.0]heptan-7-yl)methanamine], the IC50 was under 500 nM in experiment [1] and under 1000 nM in experiment [2].

In the case of `NCC1(c2ccc(F)cc2)C2CCN(c3cnc4c(-c5cccc6cccnc56)n[nH]c4n3)CC21` (centres unmarked) [Example 12, (7-(4-fluorophenyl)-3-(3-(quinolin-8-yl)-1H-pyrazolo[3,4-b]pyrazin-6-yl)-3-azabicyclo[4.1.0]heptan-7-yl)methanamine], the IC50 in experiment [1] was 500 to 3000 nM; in experiment [2], over 5000 nM.

As to `Cc1csc(C2(CN)C3CCN(c4cnc5c(-c6ccc(F)c7ncccc67)n[nH]c5n4)CC32)n1` (centres unmarked) [Example 92, (3-(3-(8-fluoroquinolin-5-yl)-1H-pyrazolo[3,4-b]pyrazin-6-yl)-7-(4-methylthiazol-2-yl)-3-azabicyclo[4.1.0]heptan-7-yl)methanamine], the IC50 in experiment [1] is under 500 nM; in experiment [2], under 1000 nM.

With `NC[C@]1(c2cc(F)cc(F)c2)[C@@H]2CCN(c3cnc4c(-c5ccc6c(=O)[nH]ccc6c5F)n[nH]c4n3)C[C@@H]21` [Example 306, 6-(6-((1S,6R,7R)-7-(aminomethyl)-7-(3,5-difluorophenyl)-3-azabicyclo[4.1.0]heptan-3-yl)-1H-pyrazolo[3,4-b]pyrazin-3-yl)-5-fluoroisoquinolin-1(2H)-one], the results for the IC50 in experiment [1] and in experiment [2] were under 500 nM and under 1000 nM, respectively.

`Cc1c(-c2n[nH]c3nc(N4CC[C@@H]5[C@H](C4)[C@@]5(CN)c4ccccc4F)cnc23)ccc2ncccc12` [Example 172, ((1S,6R,7R)-7-(2-fluorophenyl)-3-(3-(5-methylquinolin-6-yl)-1H-pyrazolo[3,4-b]pyrazin-6-yl)-3-azabicyclo[4.1.0]heptan-7-yl)methanamine]: the IC50 in experiment [1] was under 500 nM; in experiment [2], under 1000 nM.

Regarding `Cc1cc(C2(CN)C3CCN(c4cnc5c(-c6cccc7cnccc67)n[nH]c5n4)CC32)no1` (centres unmarked) [Example 23, (3-(3-(isoquinolin-5-yl)-1H-pyrazolo[3,4-b]pyrazin-6-yl)-7-(5-methylisoxazol-3-yl)-3-azabicyclo[4.1.0]heptan-7-yl)methanamine], the IC50 in experiment [1] was under 500 nM; in experiment [2], under 1000 nM.

As to `NC[C@]1(c2ccccc2F)[C@@H]2CCN(c3cnc4c(-c5cccc6c5CC(=O)N6)n[nH]c4n3)C[C@@H]21` [Example 122, 4-(6-((1S,6R,7R)-7-(aminomethyl)-7-(2-fluorophenyl)-3-azabicyclo[4.1.0]heptan-3-yl)-1H-pyrazolo[3,4-b]pyrazin-3-yl)indolin-2-one], the IC50 in experiment [1] was under 500 nM; in experiment [2], under 1000 nM.

Take `COc1ccc2cc(-c3n[nH]c4nc(N5CC[C@@H]6[C@H](C5)[C@@]6(CN)c5cc(C)on5)cnc34)cnc2c1` [Example 151, ((1S,6R,7S)-3-(3-(7-methoxyquinolin-3-yl)-1H-pyrazolo[3,4-b]pyrazin-6-yl)-7-(5-methylisoxazol-3-yl)-3-azabicyclo[4.1.0]heptan-7-yl)methanamine]: the 50% inhibitory concentration (IC50) in experiment [1] is under 500 nM; in experiment [2], under 1000 nM.

With `NC[C@]1(c2ccccc2F)[C@@H]2CCN(c3cc(=O)n4cc(-c5cccc(Cl)c5Cl)ccc4n3)C[C@@H]21` [Example 408, 2-((1S,6R,7R)-7-(aminomethyl)-7-(2-fluorophenyl)-3-azabicyclo[4.1.0]heptan-3-yl)-7-(2,3-dichlorophenyl)-4H-pyrido[1,2-a]pyrimidin-4-one], the half-inhibitory concentration (IC50) is under 500 nM in experiment [1] and over 5000 nM in experiment [2].

As for `Cn1ccc2c(Cl)c(-c3n[nH]c4nc(N5CC[C@@H]6[C@H](C5)[C@@]6(CN)c5ccccc5F)cnc34)ccc2c1=O` [Example 336, 6-(6-((1S,6R,7R)-7-(aminomethyl)-7-(2-fluorophenyl)-3-azabicyclo[4.1.0]heptan-3-yl)-1H-pyrazolo[3,4-b]pyrazin-3-yl)-5-chloro-2-methylisoquinolin-1(2H)-one], the IC50 in experiment [1] was under 500 nM; in experiment [2], under 1000 nM.

Take `Cc1cc([C@@]2(CN)[C@@H]3CCN(c4cnc5c(-c6ccc(C(C)O)c7ncccc67)n[nH]c5n4)C[C@@H]32)no1` (stereo partly drawn) [Example 134, 1-(5-(6-((1S,6R,7S)-7-(aminomethyl)-7-(5-methylisoxazol-3-yl)-3-azabicyclo[4.1.0]heptan-3-yl)-1H-pyrazolo[3,4-b]pyrazin-3-yl)quinolin-8-yl)ethan-1-ol]: the IC50 in experiment [1] is under 500 nM; in experiment [2], under 1000 nM.

The values are drawn from US20240109900A1, “AZABICYCLIC SHP2 INHIBITORS” (IRBM S.P.A., priority 2021, published 2024).
